“And” between values parts separate entries of the source, which are not always exact repeats. Identical values can stand only once.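 How tested: cells in 96-well plates exposed to compound for 48 hours at five concentrations. At the GI50, growth is halved. TGI is the concentration that stops growth completely.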
Columns and labels:
Assay in all cases: NCI anticancer screen, dose series, 48 h
[1] = system: 786-0 renal
[2] = system: CCRF-CEM leukemia
[3] = system: NCI/ADR-RES ovarian
[4] = system: M14 melanoma
[5] = system: MOLT-4 leukemia
[6] = system: SNB-75 CNS
[7] = system: OVCAR-8 ovarian
[8] = system: MDA-MB-435
[9] = system: SF-295 CNS
[10] = system: MDA-MB-231 breast

| Compound | TGI [1] | TGI [2] | TGI [3] | TGI [4] | TGI [5] | TGI [6] | TGI [7] | TGI [8] | TGI [9] | TGI [10] | GI50 [1] [µM] | GI50 [2] [µM] | GI50 [3] [µM] | GI50 [4] [µM] | GI50 [5] [µM] | GI50 [7] [µM] | GI50 [8] [µM] | GI50 [9] [µM] | GI50 [10] [µM] | GI50 [6] [µM] |
| --- | --- | --- | --- | --- | --- | --- | --- | --- | --- | --- | --- | --- | --- | --- | --- | --- | --- | --- | --- | --- |
| COc1cc(=O)oc(/C=C/C=C/C=C/C(C)=C\C2(C)OC(C)C(C)(O)C2O)c1C (centres undefined) | > 100 µM | > 100 µM | > 100 µM | > 100 µM | > 100 µM | > 100 µM | > 100 µM | > 100 µM | > 100 µM | > 100 µM |  |  |  |  |  |  |  |  |  |  |
| COc1cccc(NC(=O)c2ccc(NC3=C(Cl)C(=O)N(Cc4ccccc4)C3=O)cc2)c1 | 33.9 µM | 4.35 µM | 29.8 µM | 31.7 µM | 16.2 µM |  | 16.5 µM | 41.4 µM | 28.8 µM | 36.1 µM | 18.3 | 1.67 | 16.3 | 17.3 | 2.82 | 4.17 | 10.6 | 10.5 | 16.7 |  |
| O=C1CCC(N2C(=O)c3cccc(NCCOCCOCCNC(=O)c4cc5c(o4)C(=O)c4ccccc4C5=O)c3C2=O)C(=O)N1 (centres undefined) | 10.9 µM | 28.9 µM | 62.1 µM | 2.6 µM | 7.11 µM | 4.16 µM | 10.5 µM | 2.63 µM | 3.08 µM | 7.31 µM | 3.14 | 3.45 | 17.1 | 1.2 | 2.73 | 2.04 | 1.23 | 1.68 | 2.29 | 2.47 |
| CN1CCN(c2ccc(-c3cccc(CN4CCOCC4)c3)cc2NC(=O)c2c[nH]c(=O)cc2C(F)(F)F)CC1 | > 100 µM | > 100 µM | > 100 µM | 36.9 µM | 64 µM | 99.8 µM | > 100 µM | > 100 µM | > 100 µM | 54.6 µM | 41.8 | 58.8 | > 100 | 17.2 | 19 | 48.7 | 30.2 | 33.1 | 16.3 | 13.6 |
| COc1ccc(C[C@H]2NC[C@H](O)[C@H]2OC(C)=O)cc1 | 0.137 µM | 0.863 µM | 0.369 µM | 0.068 µM | 0.0642 µM | 0.0668 µM | 0.0897 µM | 0.193 µM | 0.0641 µM | 0.079 µM |  |  |  |  |  |  |  |  |  |  |
| Cc1ccc2c(c1)-c1oc(=O)c(-c3cc4ccccc4oc3=O)cc1C(O)O2 (centres undefined) | 39.7 µM | > 100 µM | 52.3 µM | 40.6 µM | 74.4 µM | 47 µM | 62.5 µM | 45.6 µM | 38.2 µM | 43.7 µM | 20.9 | 42.2 | 23.2 | 21.4 | 27.8 | 19.9 | 19.2 | 16.3 | 15.2 | 15.6 |
| Clc1ccc(COC(Cn2ccnc2)c2ccc(Cl)cc2Cl)c(Cl)c1 (centres undefined) | 14.5 µM and 21 µM and 22.9 µM | 21.2 µM and 24.8 µM and 19.8 µM | 13.3 µM and 25.2 µM and 16 µM | 14.1 µM and 26.6 µM and 22.4 µM | 15.1 µM and 22.2 µM and 13.9 µM | 12.6 µM and 28.8 µM and 16.2 µM | 27.3 µM and 36.9 µM and 22.1 µM | 6.89 µM and 13 µM and 9.97 µM | 8.73 µM and 23.7 µM and 23.8 µM | 12.9 µM and 26.2 µM and 24.6 µM | 4.2 | 4.55 | 3.06 | 3.73 |  | 4.21 | 2.39 | 2.29 | 2.15 |  |
| COC(=O)[C@H](Cc1cn(C)cn1)NC(=O)[C@@H](NC(=O)Nc1cc(C(F)(F)F)cc(C(F)(F)F)c1)C(C)(C)C | > 10 µM | > 10 µM | > 10 µM | > 10 µM | > 10 µM | > 10 µM | > 10 µM | > 10 µM | > 10 µM | > 10 µM | > 10 | > 10 | > 10 | > 10 | > 10 | > 10 | > 10 | > 10 | > 10 | > 10 |
| C#CCN(Cc1nc2cc(C(F)(F)F)ccc2nc1-c1ccccc1)c1ccc(F)cc1 | 54 µM | > 100 µM | 84.7 µM | > 100 µM | > 100 µM | > 100 µM | > 100 µM | > 100 µM | > 100 µM | 56.8 µM | 20.4 | 27.1 | 29.1 | 56.4 | 36.5 | 29.4 | 38 | 51.4 | 21.6 | 90.3 |
| C[C@@H]1OC(=O)NN=C1c1ccc(-c2ccc(F)cc2)c(C(F)(F)F)c1 | 30.3 µM | > 100 µM | 21.2 µM | 21.6 µM | 33.4 µM | 20.4 µM | 31.1 µM | 13.9 µM | 19.2 µM | 24.9 µM | 13.7 | 8.25 | 5.08 | 7.14 | 5.27 | 12.7 | 3.57 | 5.49 | 10.1 | 5 |
| Clc1nc(-c2ccccc2)nc(Cl)c1Cl | 22.8 µM | 7.99 µM | 61.3 µM | 19.7 µM | 15 µM | 29.1 µM | 41.2 µM | 26.8 µM | 31.5 µM | 27.1 µM |  |  |  |  |  |  |  |  |  |  |
| COC(=O)CCCNC(=O)C(=O)c1c(O)c(O)c(C(C)C)c2cc(C)c(-c3c(C)cc4c(C(C)C)c(O)c(O)c(C(=O)C(=O)NCCCC(=O)OC)c4c3O)c(O)c12 | 7.54 µM | > 32.5 µM | 16.6 µM | 2.31 µM |  | 19.1 µM | 2.5 µM | 5.85 µM | 5.22 µM | 2.99 µM | 1.07 | 0.331 | 0.834 | 0.753 |  | 0.604 | 1.06 | 0.25 | 0.743 | 1.43 |
| COc1ccccc1N1CCN(CCCOc2ccc(C(=O)/C=C3/C(=O)Nc4ccccc43)cc2)CC1 | > 70 µM | > 43.2 µM | 40.9 µM | 27 µM | 17.5 µM | 43.9 µM | 55.5 µM | 52.3 µM | 32.4 µM | 37.6 µM | 19.7 | 3.07 | 9.53 | 11 | 1.69 | 12 | 13.6 | 12.5 | 9.63 | 14.9 |

Source: PubChem BioAssay (NCI)
